In this assay the target is T1, CXCR7 (Homo sapiens, UniProt P25106).
T1 construct: host or cells: CHO-K1 (PathHunter CHO-K1 CXCR7 b-arrestin cell line, stably transfected)
T1 sequence (P25106 whole entry): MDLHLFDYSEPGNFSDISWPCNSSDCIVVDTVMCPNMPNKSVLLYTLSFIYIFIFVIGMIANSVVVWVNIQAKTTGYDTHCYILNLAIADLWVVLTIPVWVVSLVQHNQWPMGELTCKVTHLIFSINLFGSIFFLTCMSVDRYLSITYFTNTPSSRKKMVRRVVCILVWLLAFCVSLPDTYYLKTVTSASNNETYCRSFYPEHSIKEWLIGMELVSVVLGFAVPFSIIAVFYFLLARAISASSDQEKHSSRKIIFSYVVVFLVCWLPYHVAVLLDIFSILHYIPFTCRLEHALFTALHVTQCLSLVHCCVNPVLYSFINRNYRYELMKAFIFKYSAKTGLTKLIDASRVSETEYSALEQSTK
T1 sequence (P32121 whole entry partner): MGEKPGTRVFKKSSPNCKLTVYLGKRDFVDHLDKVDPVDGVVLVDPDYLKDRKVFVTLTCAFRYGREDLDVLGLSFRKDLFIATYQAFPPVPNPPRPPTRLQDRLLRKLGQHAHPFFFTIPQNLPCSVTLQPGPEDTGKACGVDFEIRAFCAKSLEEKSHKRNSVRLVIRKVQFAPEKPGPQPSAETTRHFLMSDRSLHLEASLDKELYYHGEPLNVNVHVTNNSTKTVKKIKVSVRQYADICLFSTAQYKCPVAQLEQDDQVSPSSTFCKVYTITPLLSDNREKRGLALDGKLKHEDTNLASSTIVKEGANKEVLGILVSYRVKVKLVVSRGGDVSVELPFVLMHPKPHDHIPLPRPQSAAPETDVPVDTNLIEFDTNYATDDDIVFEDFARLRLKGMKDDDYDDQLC
Description: PathHunter CHO-K1 CXCR7 b-arrestin recruitment assay (CXCR7 agonistic activity). It counts as cell-based. To be noted: PathHunter CHO-K1 CXCR7 b-arrestin cell line. An outline of the steps:
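Stable CHO-K1 line with C-terminally ProLink-tagged CXCR7 and β-arrestin 2–EA fusion; β-arrestin recruitment restores β-gal activity, read by chemiluminescence after 1 h RT detection. Cells seeded 24 h, starved in OPTIMEM 3–4 h, exposed to compounds 90 min at 37 °C in HBSS/HEPES/BSA. Geometric-mean EC50 from repeated measurements.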
Background: Activated receptors often draw arrestin, which recruitment assays turn into a signal.
For orientation: EC50 means the concentration giving half of the maximal effect. In the case of `CNCCN(Cc1ncccc1C(F)(F)F)C(=O)CNc1cccc2c1CCN(C(=O)CC(C)C)C2` [compound 416], a half-maximal effect (EC50) was put at 86 nM.

For the compound `COCCN1CCc2c(CCC(=O)N(CCC(C)(C)O)Cc3ccccc3C(F)(F)F)cccc2C1` [Example 344, N-(3-Hydroxy-3-methyl-butyl)-3-[2-(2-methoxy-ethyl)-1,2,3,4-tetrahydro-isoquinolin-5-yl]-N-(2-trifluoromethyl-benzyl)-propionamide], the EC50 came to 438 nM.

`O=C(CNc1cccc2c1CCN(CC1CC1)C2)N(Cc1ccccc1C(F)(F)F)CC1COCCO1` (stereo not shown) [Example 226, 2-(2-Cyclopropylmethyl-1,2,3,4-tetrahydro-isoquinolin-5-ylamino)-N-[1,4]dioxan-2-ylmethyl-N-(2-trifluoromethyl-benzyl)-acetamide] returned an EC50 of 13 nM.

In the case of `CN(C)CCN(Cc1cccc(Br)c1)C(=O)CNc1cccc2c1CCN(CC1CC1)C2` [Example 237, N-(3-Bromo-benzyl)-2-(2-cyclopropylmethyl-1,2,3,4-tetrahydro-isoquinolin-5-ylamino)-N-(2-dimethylamino-ethyl)-acetamide], the EC50 was 5 nM.

In turn, `CC(=O)N1CCc2c(cccc2NCC(=O)N(CCN(C)C)Cc2ccccc2)C1` [Example 108, 2-(2-Acetyl-1,2,3,4-tetrahydro-isoquinolin-5-ylamino)-N-benzyl-N-(2-dimethylamino-ethyl)-acetamide] displayed an EC50 of 52 nM.

`O=C(CNc1cccc2c1CN(CC1CC1)CC2)N(CCN1CCC(F)(F)C1)Cc1ccccc1C(F)(F)F` [compound 479] gave an EC50 of 78 nM.

Compound `CCCN1CCc2c(cccc2NCC(=O)N(CCN(C)C)Cc2ccccc2C(F)(F)F)C1` [Example 573, N-(2-Dimethylamino-ethyl)-2-(2-propyl-1,2,3,4-tetrahydro-isoquinolin-5-ylamino)-N-(2-trifluoromethyl-benzyl)-acetamide] returned an EC50 of 3 nM.

On to `CN(CCN(Cc1ccccc1C(F)(F)F)C(=O)CNc1cccc2c1CCN(CC1CC1)C2)CC1CC1` [compound 450, N-[2-(Cyclopropylmethyl-methyl-amino)-ethyl]-2-(2-cyclopropylmethyl-1,2,3,4-tetrahydro-isoquinolin-5-ylamino)-N-(2-trifluoromethyl-benzyl)-acetamide], for which it took 1 nM to reach a half-maximal effect (EC50).

For the compound `O=C(CNc1cccc2c1CCN(CC1CC1)C2)N(Cc1ccccc1C(F)(F)F)CC1(O)CCCC1` [Example 243, 2-(2-Cyclopropylmethyl-1,2,3,4-tetrahydro-isoquinolin-5-ylamino)-N-(1-hydroxy-cyclopentylmethyl)-N-(2-trifluoromethyl-benzyl)-acetamide], the response was half-maximal at 8 nM (EC50).

In turn, `CCC(=O)N1CCc2c(cccc2NCC(=O)N(CCC2CCCN2C)Cc2ccccc2)C1` (racemic) [Example 32, rac-N-Benzyl-N-[2-(1-methyl-pyrrolidin-2-yl)-ethyl]-2-(2-propionyl-1,2,3,4-tetrahydro-isoquinolin-5-ylamino)-acetamide] registered an EC50 of 28 nM.

The compound `CCCC(=O)N1CCc2c(cccc2NCC(=O)N(CCNC)Cc2ncccc2C(F)(F)F)C1` [compound 411, 2-(2-Butyryl-1,2,3,4-tetrahydro-isoquinolin-5-ylamino)-N-(2-methylamino-ethyl)-N-(3-trifluoromethyl-pyridin-2-ylmethyl)-acetamide] registered an EC50 of 15 nM.

Compound `CN(C)CCN(Cc1cccc(OC(F)(F)F)c1)C(=O)CNc1cccc2c1CCN(CC1CC1)C2` [Example 221, 2-(2-Cyclopropylmethyl-1,2,3,4-tetrahydro-isoquinolin-5-ylamino)-N-(2-dimethylamino-ethyl)-N-(3-trifluoromethoxy-benzyl)-acetamide] registered an EC50 of 9 nM.

For `C=CCN1CCc2cccc(NCC(=O)N(CCN(C)CCF)Cc3ccccc3C(F)(F)F)c2C1` [compound 465, 2-(2-Allyl-1,2,3,4-tetrahydro-isoquinolin-8-ylamino)-N-{2-[(2-fluoro-ethyl)-methyl-amino]-ethyl}-N-(2-trifluoromethyl-benzyl)-acetamide], the EC50 was found to be 39 nM.

For the compound `CCN(CC)CCN(Cc1ccccc1C(F)(F)F)C(=O)CNc1cccc2c1CN(CC)CC2` [compound 514, N-(2-Diethylamino-ethyl)-2-(2-ethyl-1,2,3,4-tetrahydro-isoquinolin-8-ylamino)-N-(2-trifluoromethyl-benzyl)-acetamide], the EC50 amounted to 6 nM.

`CCOC(=O)[C@@H]1C[C@H]1CN(Cc1ccccc1C(F)(F)F)C(=O)CNc1cccc2c1CCN(CC1CC1)C2` (racemic) [Example 81, rac-trans-2-{[[2-(2-Cyclopropylmethyl-1,2,3,4-tetrahydro-isoquinolin-5-ylamino)-acetyl]-(2-trifluoromethyl-benzyl)-amino]-methyl}-cyclopropanecarboxylic acid ethyl ester] had an EC50 of 126 nM.

For the compound `CCC(=O)N1CCc2c(cccc2NCC(=O)N(CCN(C)C)Cc2ccccc2)C1` [compound 111, N-Benzyl-N-(2-dimethylamino-ethyl)-2-(2-propionyl-1,2,3,4-tetrahydro-isoquinolin-5-ylamino)-acetamide], the EC50 came to 32 nM.

As to `COCCN1CCc2c(cccc2NCC(=O)N(CCN(C)C)Cc2ncccc2Cl)C1` [Example 306, N-(3-Chloro-pyridin-2-ylmethyl)-N-(2-dimethylamino-ethyl)-2-[2-(2-methoxy-ethyl)-1,2,3,4-tetrahydro-isoquinolin-5-ylamino]-acetamide], the EC50 came out at 39 nM.

The compound `O=C(CNc1cccc2c1CCN(CC1CC1)C2)N(CCN1CCCC1)Cc1ccc(F)cc1F` [Example 51, 2-(2-Cyclopropylmethyl-1,2,3,4-tetrahydro-isoquinolin-5-ylamino)-N-(2,4-difluoro-benzyl)-N-(2-pyrrolidin-1-yl-ethyl)-acetamide] gave an EC50 of 3 nM.

`CN(C)CCN(Cc1ccccc1)C(=O)CNc1cccc2c1CN(CC1CC1)C2` [Example 209, N-Benzyl-2-(2-cyclopropylmethyl-2,3-dihydro-1H-isoindol-4-ylamino)-N-(2-dimethylamino-ethyl)-acetamide] registered an EC50 of 51 nM.

`CN(C)CCN(Cc1ccccc1)C(=O)CNc1cccc2c1CCN(CC1CC1)C2` [compound 110, N-Benzyl-2-(2-cyclopropylmethyl-1,2,3,4-tetrahydro-isoquinolin-5-ylamino)-N-(2-dimethylamino-ethyl)-acetamide] registered an EC50 of 14 nM.

For `CNCCN(Cc1ccccc1C(F)(F)F)C(=O)CNc1cccc2c1CCN(C(=O)NC(C)(C)C)C2` [compound 406], the response was half-maximal at 80 nM (EC50).

Consider `C=CCN1CCc2c(CCC(=O)N(CCN(C)C)Cc3ccccc3C(F)(F)F)cccc2C1` [Example 349, 3-(2-Allyl-1,2,3,4-tetrahydro-isoquinolin-5-yl)-N-(2-dimethylamino-ethyl)-N-(2-trifluoromethyl-benzyl)-propionamide], for which a half-maximal effect (EC50) was put at 12 nM.

The compound `CCC(=O)N1CCc2c(cccc2NCC(=O)N(CCN(C)C)Cc2ccc(C(F)(F)F)cc2)C1` [Example 34, N-(2-Dimethylamino-ethyl)-2-(2-propionyl-1,2,3,4-tetrahydro-isoquinolin-5-ylamino)-N-(4-trifluoromethyl-benzyl)-acetamide] returned an EC50 of 132 nM.

For `CNCCN(Cc1ncccc1C(F)(F)F)C(=O)CNc1cccc2c1CCN(C(=O)OC)C2` [compound 419, 5-({[(2-Methylamino-ethyl)-(3-trifluoromethyl-pyridin-2-ylmethyl)-carbamoyl]-methyl}-amino)-3,4-dihydro-1H-isoquinoline-2-carboxylic acid methyl ester], the EC50 came to 6 nM.

For the compound `CC(C)CN1Cc2cccc(NCC(=O)N(CCN(C)C)Cc3ccccc3C(F)(F)F)c2CC1=O` [Example 312, N-(2-Dimethylamino-ethyl)-2-(2-isobutyl-3-oxo-1,2,3,4-tetrahydro-isoquinolin-5-ylamino)-N-(2-trifluoromethyl-benzyl)-acetamide], the EC50 came to 37 nM.

`O=C(CNc1cccc2c1CCN(CC1CC1)C2)N(Cc1ccccc1C(F)(F)F)C[C@H]1CCNC1` [compound 380] gave an EC50 of 6 nM.

The compound `CN(C)CCN(Cc1ccccn1)C(=O)CNc1cccc2c1CCN(CC1CC1)C2` [Example 257, 2-(2-Cyclopropylmethyl-1,2,3,4-tetrahydro-isoquinolin-5-ylamino)-N-(2-dimethylamino-ethyl)-N-pyridin-2-ylmethyl-acetamide] displayed an EC50 of 29 nM.

Turning to `CN(CCN(Cc1ccccc1C(F)(F)F)C(=O)CNc1cccc2c1CCN(CC1CC1)C2)C1CCCC1` [compound 451, N-[2-(Cyclopentyl-methyl-amino)-ethyl]-2-(2-cyclopropylmethyl-1,2,3,4-tetrahydro-isoquinolin-5-ylamino)-N-(2-trifluoromethyl-benzyl)-acetamide], the EC50 is 1 nM.

On to `CN(C)CCN(Cc1ccccc1C(F)(F)F)C(=O)CCc1cccc2c1CCN(CC1CC1)C2` [compound 158, 3-(2-Cyclopropylmethyl-1,2,3,4-tetrahydro-isoquinolin-5-yl)-N-(2-dimethylamino-ethyl)-N-(2-trifluoromethyl-benzyl)-propionamide], for which the EC50 turned out to be 2 nM.

`CN(C)CCN(Cc1ccccc1C(F)(F)F)C(=O)CCc1cccc2c1CCN(C(=O)OC(C)(C)C)C2` [Example 99, 5-{2-[(2-Dimethylamino-ethyl)-(2-trifluoromethyl-benzyl)-carbamoyl]-ethyl}-3,4-dihydro-1H-isoquinoline-2-carboxylic acid tert-butyl ester] displayed an EC50 of 177 nM.

On to `CCN1CCc2cccc(NCC(=O)N(CCN(C)C)Cc3ncccc3F)c2C1` [compound 528, N-(2-Dimethylamino-ethyl)-2-(2-ethyl-1,2,3,4-tetrahydro-isoquinolin-8-ylamino)-N-(3-fluoro-pyridin-2-ylmethyl)-acetamide], for which a half-maximal response (EC50) required 42 nM.

These data come from US9920010B2, “CXCR7 receptor modulators” (IDORSIA PHARMACEUTICALS LTD, priority 2013, dated 2018).
